What was measured:
[1] = Physicochemical and biopharmaceutical properties of Compound 1 and its crystal forms
Experimental: Compound 1 is a BCS II compound, where its solubility is the primary biopharmaceutical factor limiting absorption. Compound 1 exists in one form as an ansolvate crystalline form characterized by at least two, three or four X-ray powder diffraction peaks (Cu Kα radiation) selected from 13.37°, 14.37°, 19.95° and 23.92° 2θ (each ±0.2° 2θ) (see, e.g., PCT application Publication No. WO 2015/120133 A1, incorporated herein by reference in its entirety and for all purposes). This form can hereinafter also be referred to as Form II. The physicochemical properties of Compound 1, including its Form II, are not as conducive (compared to other drug substances for formulation) to making a high dosage form of Compound 1. […] The bulk density of Form II of Compound 1 is considered low and its flowability considered poor. Upon milling, the flowability decreases. […] Form II of Compound 1 is also prone to sticking to steel surfaces, such as in processing equipment for tablet manufacture.
In addition, another ansolvate crystalline form of Compound 1, referred to as Form N, is known. Form N has an enantiotropic relationship with Form II, with a transition temperature approximately in the range 30-40° C. Thus, under temperatures (e.g. storage) below 40° C., e.g., at 25° C., Compound 1 is more thermodynamically stable as Form II and at temperatures above 40° C., e.g., at 50° C., Compound 1 is more thermodynamically stable as Form N. To design tablets containing Compound 1, the above physicochemical property limitations of Compound 1 and the high dose requirements need to be accommodated while ensuring that the tablets have dissolution properties that lead to a therapeutic effect.

[2] = Compression profile of neat Form II API (hydraulic press, 200 mg compacts); type: physicochemical; settings: for Tablet Hardness / Tablet Thickness: neat API 200 mg
Experimental: The compressibility of crystalline Form II of Compound 1 (“API”) was determined by compressing neat unformulated API at 200 mg scale compressed in a hydraulic press using 5/16th inch diameter, standard concave round tooling. The resulting tablets were measured for thickness using a digital caliper gauge, and for tensile strength using a tablet hardness tester. […] Lots 1a and 2 were directly from the API manufacturing process, but from different API suppliers. Lot 1b was prepared by taking Lot 1a and subjecting it to hammer milling to cause reduction of particle size.

[3] = compression force 2000 lbf, listed as 1a
[4] = compression force 3000 lbf, listed as 1a
[5] = compression force 4000 lbf, listed as 1a
[6] = compression force 2000 lbf, listed as 1b
[7] = compression force 3000 lbf, listed as 1b
[8] = compression force 4000 lbf, listed as 1b
[9] = compression force 2000 lbf, listed as 2
[10] = compression force 3000 lbf, listed as 2
[11] = compression force 4000 lbf, listed as 2

**Q.** For `CC(C)n1nccc1-c1ncccc1COc1cccc(O)c1C=O` [Compound 1, 2-hydroxy-6-((2-(1-isopropyl-1H-pyrazol-5-yl)pyridin-3-yl)methoxy)benzaldehyde], which BCS class [1] is on record?
**A.** Its BCS class is “BCS II”.

**Q.** For `CC(C)n1nccc1-c1ncccc1COc1cccc(O)c1C=O` [Form II of Compound 1, 2-hydroxy-6-((2-(1-isopropyl-1H-pyrazol-5-yl)pyridin-3-yl)methoxy)benzaldehyde], which “Compressibility (in words)” value ([2]; neat API) is on record?
**A.** Its value is “relatively incompressible solid”.

**Q.** And the “Lipophilicity (in words)” value [1]?
**A.** The value was “lipophilic”.

**Q.** And the “Water solubility (in words)” value [1]?
**A.** Its value is “poorly water soluble”.

**Q.** For `CC(C)n1nccc1-c1ncccc1COc1cccc(O)c1C=O` [Form N, 2-hydroxy-6-((2-(1-isopropyl-1H-pyrazol-5-yl)pyridin-3-yl)methoxy)benzaldehyde], which “Transition temperature of the enantiotropic relationship with Form II” value [1] is on record?
**A.** The value was 30-40 °C.

**Q.** What does the source list for `CC(C)n1nccc1-c1ncccc1COc1cccc(O)c1C=O` [Lot 1a, 2-hydroxy-6-((2-(1-isopropyl-1H-pyrazol-5-yl)pyridin-3-yl)methoxy)benzaldehyde]?
**A.** Tablet Hardness [2, 3]: 1.8 kp; Tablet Thickness [2, 3]: 4.50 mm; Tablet Hardness [2, 4]: 1.5 kp; Tablet Thickness [2, 4]: 4.34 mm; Tablet Hardness [2, 5]: 1.0 kp; Tablet Thickness [2, 5]: 4.35 mm

**Q.** For `CC(C)n1nccc1-c1ncccc1COc1cccc(O)c1C=O` [Lot 1b, 2-hydroxy-6-((2-(1-isopropyl-1H-pyrazol-5-yl)pyridin-3-yl)methoxy)benzaldehyde], which “Tablet Hardness” value [2, 6] is on record?
**A.** The value was 2.4 kp.

**Q.** And the “Tablet Thickness” value [2, 6]?
**A.** The value was 4.55 mm.

**Q.** What about the “Tablet Hardness” value [2, 7] of the same molecule?
**A.** The value was 1.2 kp.

**Q.** What about the “Tablet Thickness” value [2, 7] of the same molecule?
**A.** Its value is 4.32 mm.

**Q.** What about the “Tablet Hardness” value [2, 8] of the same molecule?
**A.** Its value is 1.5 kp.

**Q.** And the “Tablet Thickness” value [2, 8]?
**A.** Its value is 4.43 mm.

**Q.** For `CC(C)n1nccc1-c1ncccc1COc1cccc(O)c1C=O` [Lot 2, 2-hydroxy-6-((2-(1-isopropyl-1H-pyrazol-5-yl)pyridin-3-yl)methoxy)benzaldehyde], which “Tablet Hardness” value [2, 9] is on record?
**A.** Its value is 9.0 kp.

**Q.** And the “Tablet Thickness” value [2, 9]?
**A.** The value was 4.50 mm.

**Q.** What about the “Tablet Hardness” value [2, 10] of the same molecule?
**A.** Its value is 3.7 kp.

**Q.** And the “Tablet Thickness” value [2, 10]?
**A.** Its value is 4.27 mm.

**Q.** What about the “Tablet Hardness” value [2, 11] of the same molecule?
**A.** Its value is 3.4 kp.

**Q.** And the “Tablet Thickness” value [2, 11]?
**A.** Its value is 4.31 mm.
